Assay results as given in patent US20260078135A1, “POLYCYCLIC QUINAZOLINES FOR INHIBITION OF ERBB2” (Enliven Inc., priority 2022, published 2026).
Where a name gives a salt, the structure may show the parent alone.

Key:
[1] = molecular target: T1, phosphorylated ERBB2 (pERBB2) (Homo sapiens, UniProt P04626); experiment: Detection of phosphorylated ERBB2 (pERBB2) by ELISA in BT-474 cells; assay type: cell-based; conditions: four hour incubation
T1 construct: endogenous in cells; host or cells: BT-474
T1 sequence (P04626 23-1255): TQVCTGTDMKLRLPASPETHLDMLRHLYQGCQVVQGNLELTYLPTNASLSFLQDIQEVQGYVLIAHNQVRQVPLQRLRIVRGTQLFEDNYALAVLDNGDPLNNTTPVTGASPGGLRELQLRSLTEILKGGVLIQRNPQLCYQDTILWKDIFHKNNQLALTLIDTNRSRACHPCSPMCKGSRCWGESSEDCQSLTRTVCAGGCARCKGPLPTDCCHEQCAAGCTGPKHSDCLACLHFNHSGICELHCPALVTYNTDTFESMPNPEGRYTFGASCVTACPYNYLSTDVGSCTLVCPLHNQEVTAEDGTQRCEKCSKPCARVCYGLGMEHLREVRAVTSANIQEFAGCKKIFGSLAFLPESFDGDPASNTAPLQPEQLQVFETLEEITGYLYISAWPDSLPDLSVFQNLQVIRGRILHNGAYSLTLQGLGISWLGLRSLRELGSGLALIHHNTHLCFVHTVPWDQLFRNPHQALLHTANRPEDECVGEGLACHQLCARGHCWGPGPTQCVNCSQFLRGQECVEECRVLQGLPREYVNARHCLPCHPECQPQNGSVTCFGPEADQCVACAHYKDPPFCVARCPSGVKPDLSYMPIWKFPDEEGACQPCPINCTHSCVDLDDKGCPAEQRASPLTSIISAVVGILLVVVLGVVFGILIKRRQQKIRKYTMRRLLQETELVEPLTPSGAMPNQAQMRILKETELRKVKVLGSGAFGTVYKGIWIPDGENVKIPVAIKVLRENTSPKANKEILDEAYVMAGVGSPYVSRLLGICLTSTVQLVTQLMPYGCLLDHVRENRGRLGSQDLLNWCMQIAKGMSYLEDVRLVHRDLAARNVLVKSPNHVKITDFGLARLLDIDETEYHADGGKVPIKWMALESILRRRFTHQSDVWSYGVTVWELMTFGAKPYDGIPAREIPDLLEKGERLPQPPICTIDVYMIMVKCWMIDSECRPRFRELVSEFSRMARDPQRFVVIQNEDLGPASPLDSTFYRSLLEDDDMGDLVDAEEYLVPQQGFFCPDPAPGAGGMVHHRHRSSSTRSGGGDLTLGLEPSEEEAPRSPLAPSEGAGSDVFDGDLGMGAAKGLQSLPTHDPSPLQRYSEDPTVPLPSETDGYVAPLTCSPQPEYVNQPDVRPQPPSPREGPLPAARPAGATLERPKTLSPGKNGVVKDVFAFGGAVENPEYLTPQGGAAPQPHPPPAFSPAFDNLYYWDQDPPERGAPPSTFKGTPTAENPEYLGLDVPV
Method in brief: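 BT-474 cells were treated with compounds (fourfold dilutions, 10 μM to 0.01 nM final) for 4 h at 37 °C, then lysed. pERBB2 in lysates was quantified by ELISA with an HRP anti-phosphotyrosine detection antibody and TMB read at 450 nm; % relative activity was normalized to no-cell and 0.1% DMSO controls.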

[2] = molecular target: Ba/F3 ERBB2 YVMA (Homo sapiens, UniProt P04626, DUP772-775, cells depend on it); experiment: Cell viability assay (CellTiter Glo), Ba/F3 cells engineered to express ERBB2 YVMA; assay type: cell-based, mouse; conditions: Ba/F3 cells expressing human ERBB2 YVMA mutant, 72 hours, read-out: Ba/F3 ERBB2 YVMA, IC50
Ba/F3 ERBB2 YVMA, sequence (P04626 with tags, fused parts or gaps DUP772-775): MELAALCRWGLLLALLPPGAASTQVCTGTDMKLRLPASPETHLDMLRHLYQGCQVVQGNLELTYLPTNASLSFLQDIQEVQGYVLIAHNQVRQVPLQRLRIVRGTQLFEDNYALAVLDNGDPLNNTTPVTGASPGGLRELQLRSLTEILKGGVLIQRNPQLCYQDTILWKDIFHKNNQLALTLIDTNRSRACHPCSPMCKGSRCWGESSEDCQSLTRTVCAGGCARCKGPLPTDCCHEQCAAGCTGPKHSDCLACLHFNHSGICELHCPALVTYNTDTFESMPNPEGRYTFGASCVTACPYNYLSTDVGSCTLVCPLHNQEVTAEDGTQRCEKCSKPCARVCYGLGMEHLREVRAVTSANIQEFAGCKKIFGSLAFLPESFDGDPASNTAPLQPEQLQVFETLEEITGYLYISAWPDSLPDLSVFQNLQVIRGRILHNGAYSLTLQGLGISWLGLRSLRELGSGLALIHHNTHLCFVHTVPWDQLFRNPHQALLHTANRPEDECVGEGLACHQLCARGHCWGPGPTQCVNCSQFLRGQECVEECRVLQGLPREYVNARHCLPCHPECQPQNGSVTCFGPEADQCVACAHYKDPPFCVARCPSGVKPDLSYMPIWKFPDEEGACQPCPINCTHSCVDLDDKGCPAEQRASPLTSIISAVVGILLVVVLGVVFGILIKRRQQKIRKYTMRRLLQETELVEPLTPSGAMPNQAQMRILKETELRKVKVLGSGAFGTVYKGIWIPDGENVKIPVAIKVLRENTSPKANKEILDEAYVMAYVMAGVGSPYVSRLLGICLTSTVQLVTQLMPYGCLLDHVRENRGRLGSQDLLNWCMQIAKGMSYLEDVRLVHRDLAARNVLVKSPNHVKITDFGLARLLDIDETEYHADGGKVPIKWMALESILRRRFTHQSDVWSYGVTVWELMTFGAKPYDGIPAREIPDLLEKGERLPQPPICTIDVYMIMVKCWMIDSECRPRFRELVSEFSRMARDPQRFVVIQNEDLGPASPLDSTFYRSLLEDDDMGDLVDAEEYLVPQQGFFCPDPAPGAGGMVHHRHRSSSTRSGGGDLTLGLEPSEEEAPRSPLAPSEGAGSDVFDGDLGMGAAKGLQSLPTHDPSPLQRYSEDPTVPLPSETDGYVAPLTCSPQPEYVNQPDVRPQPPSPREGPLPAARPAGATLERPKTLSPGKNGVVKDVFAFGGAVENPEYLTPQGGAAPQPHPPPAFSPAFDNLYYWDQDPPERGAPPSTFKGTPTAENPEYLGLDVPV
Procedure: Cells were treated with compounds, and cell viability was measured as a metric of kinase inhibition.
BT-474, A431, MDA-MB-175VII, NCI-H1781, MCF7, and Ba/F3 cell lines were tested. The Ba/F3 cell line is IL-3-dependent mouse cell line derived from the C3H mouse strain. Ba/F3 cell lines were engineered to express human ERBB2 or EGFR kinases, rendering the cells IL-3 independent. The lines were generated via retroviral transduction utilizing a Moloney murine leukemia virus (MMLV) promoter, and constructs are stably integrated into the cell genome. The sequences of the ERBB2 and EGFR genes used were NCBI Reference Sequences NM_004448.3 and NM_005228.3, respectively.
BT-474, A431, MDA-MB-175VII, NCI-H1781 and MCF7 cells were grown in the appropriate growth medium as described in Table B2 below, and harvested at 50-80% confluence. BT-474, A431, MDA-MB-175VII, NCI-H1781 and MCF7 cells were counted and seeded at 2,000 or 1,500 cells per well in 384-well tissue culture plates (see Table B2). Similarly, Ba/F3 cell lines engineered to express EGFR, ERBB2, or ERBB2 mutants were grown, harvested, counted and seeded at 3000 cells per well in 96-well plates. A subset of wells contained media only (low control, “LC”).
Table B1 provides the growth media and number of cells seeded per well for the each cell line.
Compounds were dissolved in DMSO and serially diluted. Serially-diluted compound or a DMSO only control (high control, “HC”) was added to the plated cells in each well. Compounds were tested at concentrations of about 10 μM to 0.51 nM, using three-fold dilutions. The final proportion of DMSO never exceeded 0.1%.
Plates were placed in a 37° C., 5% CO2 incubator for 72 hours. Plates were then removed from the incubator and equilibrated for 15 minutes at room temperature. 40 μl of CellTiter Glo reagent (Promega) was added to measure the relative level of metabolically active cells by quantifying intracellular ATP concentrations. Plates were incubated for 30 minutes at room temperature, and luminescence was measured. Percent viability was normalized to a vehicle control only using the following formula: % viability=100×(Lumsample−LumLC)/(LumHC−LumLC). Graphical curves were fitted using a nonlinear regression model with a sigmoidal dose response.

[3] = molecular target: T2, phosphorylated EGFR (pEGFR) (Homo sapiens, UniProt P00533); experiment: Detection of phosphorylated EGFR (pEGFR) by AlphaLISA in EGF-stimulated A431 cells; assay type: cell-based; conditions: A431 cells (10% FBS), 4 hours incubation, EGF 30 ng/mL for 10 minutes
T2 construct: performed to measure phosphorylated EGFR levels using A431 cells (10% FBS); endogenous in cells; host or cells: A431
T2 sequence (P00533 25-1210): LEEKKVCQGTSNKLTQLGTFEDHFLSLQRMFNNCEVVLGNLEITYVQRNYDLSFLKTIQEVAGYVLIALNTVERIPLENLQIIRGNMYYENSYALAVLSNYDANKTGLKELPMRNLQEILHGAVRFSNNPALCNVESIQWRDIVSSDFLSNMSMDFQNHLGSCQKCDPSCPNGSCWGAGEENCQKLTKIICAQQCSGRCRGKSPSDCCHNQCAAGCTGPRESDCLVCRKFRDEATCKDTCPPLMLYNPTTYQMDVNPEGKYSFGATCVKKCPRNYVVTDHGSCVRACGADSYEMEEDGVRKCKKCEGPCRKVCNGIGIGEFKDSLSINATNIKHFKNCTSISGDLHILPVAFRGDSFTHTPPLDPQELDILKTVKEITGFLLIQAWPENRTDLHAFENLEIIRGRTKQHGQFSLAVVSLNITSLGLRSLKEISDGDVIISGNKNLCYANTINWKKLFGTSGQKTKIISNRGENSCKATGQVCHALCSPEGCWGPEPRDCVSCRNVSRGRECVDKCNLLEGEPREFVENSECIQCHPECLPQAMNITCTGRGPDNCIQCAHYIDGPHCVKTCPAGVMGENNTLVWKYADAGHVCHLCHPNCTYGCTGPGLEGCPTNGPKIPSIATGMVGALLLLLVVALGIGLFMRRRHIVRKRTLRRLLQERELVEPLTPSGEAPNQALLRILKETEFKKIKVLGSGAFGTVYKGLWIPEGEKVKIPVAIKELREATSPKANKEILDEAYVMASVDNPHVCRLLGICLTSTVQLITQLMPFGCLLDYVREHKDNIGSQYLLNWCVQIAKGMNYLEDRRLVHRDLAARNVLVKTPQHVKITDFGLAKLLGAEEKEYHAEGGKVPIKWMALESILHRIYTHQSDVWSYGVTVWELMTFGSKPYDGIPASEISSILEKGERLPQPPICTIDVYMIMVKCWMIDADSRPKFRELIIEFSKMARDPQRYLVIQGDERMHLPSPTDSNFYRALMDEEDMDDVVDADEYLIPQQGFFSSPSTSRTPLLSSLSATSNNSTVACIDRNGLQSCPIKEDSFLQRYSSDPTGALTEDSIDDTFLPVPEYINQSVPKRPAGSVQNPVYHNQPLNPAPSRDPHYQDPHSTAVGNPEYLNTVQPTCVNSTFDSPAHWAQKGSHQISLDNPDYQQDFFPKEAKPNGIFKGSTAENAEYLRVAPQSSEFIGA
Method in brief: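 A431 cells in 10% FBS were preincubated with compound for 4 h at 37 °C, then stimulated with 30 ng/mL EGF for 10 min and lysed. pEGFR read by AlphaLISA. % inhibition normalised to DMSO and staurosporine controls; IC50 from four-parameter curve fit.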

Row | SMILES | IC50 [1] [nM] | IC50 [3] [nM] | GI50 [2] [nM]
1 | Cc1cc(Nc2ncnc3cc4c(nc23)N2CCN(C(=O)/C=C/CN(C)C)C[C@H]2CO4)ccc1Oc1ccn2ncnc2c1 [Compound 16, (S,E)-1-(11-((4-([1,2,4]triazolo[1,5-a]pyridin-7-yloxy)-3-methylphenyl)amino)-1,2,4a,5-tetrahydropyrazino[1,2-d]pyrimido[4′,5′:5,6]pyrido[3,2-b][1,4]oxazin-3(4H)-yl)-4-(dimethylamino)but-2-en-1-one] | 5.8 | 130 | 1.47
2 | Cc1cc(Nc2ncnc3ccc4c(c23)OC[C@H]2CN(C(=O)/C=C/CN(C)C)CCN42)ccc1Oc1ccn2ncnc2c1 [Compound 18, (R,E)-1-(4-((4-([1,2,4]triazolo[1,5-a]pyridin-7-yloxy)-3-methylphenyl)amino)-6a,7,9,10-tetrahydropyrazino[1′,2′:4,5][1,4]oxazino[2,3-f]quinazolin-8(6H)-yl)-4-(dimethylamino)but-2-en-1-one] | 240 | > 10000 | 223
3 | Cc1cc(Nc2ncnc3ccc4c(c23)OC[C@@H]2CN(C(=O)/C=C/CN(C)C)CCN42)ccc1Oc1ccn2ncnc2c1 [Compound 19, (S,E)-1-(4-((4-([1,2,4]triazolo[1,5-a]pyridin-7-yloxy)-3-methylphenyl)amino)-6a,7,9,10-tetrahydropyrazino[1′,2′:4,5][1,4]oxazino[2,3-f]quinazolin-8(6H)-yl)-4-(dimethylamino)but-2-en-1-one formate] | 11.1 | 679 | 5
4 | C=CC(=O)N1CCN2C[C@H]1COc1c2ccc2ncnc(Nc3ccc(Oc4ccn5ncnc5c4)c(C)c3)c12 [Compound 24, 1-((3S)-13-((4-([1,2,4]triazolo[1,5-a]pyridin-7-yloxy)-3-methylphenyl)amino)-2,3,5,6-tetrahydro-4H-3,7-methano[1,4,7]oxadiazonino[2,3-f]quinazolin-4-yl)prop-2-en-1-one] | 430 | > 10000 | > 500
5 | C=CC(=O)N1CCN2C[C@@H]1COc1c2ccc2ncnc(Nc3ccc(Oc4ccn5ncnc5c4)c(C)c3)c12 [Compound 25, 1-((3R)-13-((4-([1,2,4]triazolo[1,5-a]pyridin-7-yloxy)-3-methylphenyl)amino)-2,3,5,6-tetrahydro-4H-3,7-methano[1,4,7]oxadiazonino[2,3-f]quinazolin-4-yl)prop-2-en-1-one] | 11.5 | 1580 | 15.5
6 | Cc1cc(Nc2ncnc3ccc4c(c23)OC[C@@H]2CN4CCN2C(=O)/C=C/CN(C)C)ccc1Oc1ccn2ncnc2c1 [Compound 26, (E)-1-((3S)-13-((4-([1,2,4]triazolo[1,5-a]pyridin-7-yloxy)-3-methylphenyl)amino)-2,3,5,6-tetrahydro-4H-3,7-methano[1,4,7]oxadiazonino[2,3-f]quinazolin-4-yl)-4-(dimethylamino)but-2-en-1-one] | 434 | > 10000 | > 500
7 | Cc1cc(Nc2ncnc3ccc4c(c23)OC[C@H]2CN4CCN2C(=O)/C=C/CN(C)C)ccc1Oc1ccn2ncnc2c1 [Compound 27, (E)-1-((3R)-13-((4-([1,2,4]triazolo[1,5-a]pyridin-7-yloxy)-3-methylphenyl)amino)-2,3,5,6-tetrahydro-4H-3,7-methano[1,4,7]oxadiazonino[2,3-f]quinazolin-4-yl)-4-(dimethylamino)but-2-en-1-one] | 8.75 | 189 | 7.69

Continued, in another order:

Row | IC50 [1] [nM] | IC50 [3] [nM] | SMILES | GI50 [2] [nM]
8 | 34.3 | 307 | Cc1cc(Nc2ncnc3cc4c(nc23)N2CCN(C(=O)/C=C/CN(C)C)C[C@H]2CO4)ccc1Oc1ccc2c(c1)ncn2C [Compound 17, (S,E)-4-(dimethylamino)-1-(11-((3-methyl-4-((1-methyl-1H-benzo[d]imidazol-5-yl)oxy)phenyl)amino)-1,2,4a,5-tetrahydropyrazino[1,2-d]pyrimido[4′,5′:5,6]pyrido[3,2-b][1,4]oxazin-3(4H)-yl)but-2-en-1-one] | 5.11
9 | 27.5 | 150 | C=CC(=O)N1CCN2c3ccc4ncnc(Nc5ccc(Oc6ccc7c(c6)ncn7C)c(C)c5)c4c3OC[C@H]2C1 [Compound 20, (R)-1-(4-((3-methyl-4-((1-methyl-1H-benzo[d]imidazol-5-yl)oxy)phenyl)amino)-6a,7,9,10-tetrahydropyrazino[1′,2′:4,5][1,4]oxazino[2,3-f]quinazolin-8(6H)-yl)prop-2-en-1-one] | 19.7
10 | 22.7 | 575 | C=CC(=O)N1CCN2c3ccc4ncnc(Nc5ccc(Oc6ccc7c(c6)ncn7C)c(C)c5)c4c3OC[C@@H]2C1 [Compound 21, (S)-1-(4-((3-methyl-4-((1-methyl-1H-benzo[d]imidazol-5-yl)oxy)phenyl)amino)-6a,7,9,10-tetrahydropyrazino[1′,2′:4,5][1,4]oxazino[2,3-f]quinazolin-8(6H)-yl)prop-2-en-1-one] | 16.2
11 | 22.8 | 544 | Cc1cc(Nc2ncnc3ccc4c(c23)OC[C@H]2CN(C(=O)/C=C/CN(C)C)CCN42)ccc1Oc1ccc2c(c1)ncn2C [Compound 22, (R,E)-4-(dimethylamino)-1-(4-((3-methyl-4-((1-methyl-1H-benzo[d]imidazol-5-yl)oxy)phenyl)amino)-6a,7,9,10-tetrahydropyrazino[1′,2′:4,5][1,4]oxazino[2,3-f]quinazolin-8(6H)-yl)but-2-en-1-one] | 2.12
12 | 27.4 | 817 | Cc1cc(Nc2ncnc3ccc4c(c23)OC[C@@H]2CN(C(=O)/C=C/CN(C)C)CCN42)ccc1Oc1ccc2c(c1)ncn2C [Compound 23, (S,E)-4-(dimethylamino)-1-(4-((3-methyl-4-((1-methyl-1H-benzo[d]imidazol-5-yl)oxy)phenyl)amino)-6a,7,9,10-tetrahydropyrazino[1′,2′:4,5][1,4]oxazino[2,3-f]quinazolin-8(6H)-yl)but-2-en-1-one] | 13.8
13 | 417 | > 10000 | C=CC(=O)N1CCN2C[C@H]1COc1c2ccc2ncnc(Nc3ccc(Oc4ccc5c(c4)ncn5C)c(C)c3)c12 [Compound 28, 1-((3S)-13-((3-methyl-4-((1-methyl-1H-benzo[d]imidazol-5-yl)oxy)phenyl)amino)-2,3,5,6-tetrahydro-4H-3,7-methano[1,4,7]oxadiazonino[2,3-f]quinazolin-4-yl)prop-2-en-1-one] | > 500
14 | 30.7 | 2930 | C=CC(=O)N1CCN2C[C@@H]1COc1c2ccc2ncnc(Nc3ccc(Oc4ccc5c(c4)ncn5C)c(C)c3)c12 [Compound 29, 1-((3R)-13-((3-methyl-4-((1-methyl-1H-benzo[d]imidazol-5-yl)oxy)phenyl)amino)-2,3,5,6-tetrahydro-4H-3,7-methano[1,4,7]oxadiazonino[2,3-f]quinazolin-4-yl)prop-2-en-1-one] | 23.9
15 | 304 | > 10000 | Cc1cc(Nc2ncnc3ccc4c(c23)OC[C@@H]2CN4CCN2C(=O)/C=C/CN(C)C)ccc1Oc1ccc2c(c1)ncn2C [Compound 30, (E)-4-(dimethylamino)-1-((3S)-13-((3-methyl-4-((1-methyl-1H-benzo[d]imidazol-5-yl)oxy)phenyl)amino)-2,3,5,6-tetrahydro-4H-3,7-methano[1,4,7]oxadiazonino[2,3-f]quinazolin-4-yl)but-2-en-1-one] | > 500
16 | 19.9 | 246 | Cc1cc(Nc2ncnc3ccc4c(c23)OC[C@H]2CN4CCN2C(=O)/C=C/CN(C)C)ccc1Oc1ccc2c(c1)ncn2C [Compound 31, (E)-4-(dimethylamino)-1-((3R)-13-((3-methyl-4-((1-methyl-1H-benzo[d]imidazol-5-yl)oxy)phenyl)amino)-2,3,5,6-tetrahydro-4H-3,7-methano[1,4,7]oxadiazonino[2,3-f]quinazolin-4-yl)but-2-en-1-one] | 12.6
